Data on one molecule can be found in patent publication US9375434B2, “Antitumor effect potentiator composed of imidazooxazine compound” (Taiho Pharmaceutical Co., Ltd., priority 2012, dated 2016).

Assay [1] relates to Human stomach cancer cell line (4-1ST). Nature of the assay: Potentiation of effect of trastuzumab (Herceptin), 4-1ST subcutaneous implant in nude mice (Test Example 11). The assay is classed as in vivo, BALB/cA Jcl-nu/nu mice. The note with it: Day 1~14, p.o. As for the experimental part: As an index of antitumor effect, the TV at Day 15 was measured for each of the drug administration groups, and the relative tumor volume (RTV) relative to Day 1 and T/C (%) were calculated by the following formulas to evaluate the antitumor effect.
TV (mm^3)=(length×width^2)/2 RTV=(TV at Day 15)/(TV at Day 1) T/C(%)=(average RTV value of the test liquid administration group)/(average RTV value of the control group)×100
Human stomach cancer cell line (4-1ST) was subcutaneously implanted into the right flank of 6-week-old male BALB/cA Jcl-nu/nu mice, and was used in the same manner as in Test Example 1.
According to the package insert, 7.2 mL of water for injection was added to a vial containing 150 mg of trastuzumab (Roche Pharma) using a sterilized injection syringe. The resulting 21 mg/mL solution was kept in a freezer. At the time of use, the frozen solution was diluted 10.5-fold with 4.75 mL of physiological saline at a trastuzumab concentration of 2.0 mg/mL, to yield a liquid for administration at a trastuzumab dose of 20 mg/kg/day. The test liquids of Compound-I were prepared to enable administration at doses of 16 and 24 mg/kg/day.
Compound-I and trastuzumab were administered once a day from Day 1 to 14. In the combined administration groups, Compound-I was administrated at a dose of 16 and 24 mg/kg/day, trastuzumab was administrated at a dose of 20 mg/kg/day, and the evaluation was performed in the same manner as in Test Example 1. FIGS. 17A and 17B and Table 20 show the results. In the medium/Compound I administration group, the test liquid was orally administered once a day for consecutive days. In the trastuzumab administration group, the test liquid was intraperitoneally administered once a day for consecutive days.
The effect of the combined administration was statistically determined in the same manner as in Test Example 7.

Assay [2] has as its system Human ovarian cancer cell line (A2780). As to the kind of experiment: Potentiation of antitumor effect of carboplatin, A2780 subcutaneous implant (Test Example 3). Conditions: compound-I 16 mg/kg/day p.o. day 1-14. Format: in vivo, nude rats. As for the experimental part: In the figure, the asterisk represents a result having a statistically significant difference compared with the single-drug administration group. FIG. 1 and Table 10 show the results. […] Carboplatin was prepared by diluting a […] injection (Bristol-Myers Squibb, 50 mg/5 mL) two-fold with physiological saline to enable administration at a carboplatin dose of 50 mg/kg/day. Further, the test liquid of Compound-I was prepared by adjusting its dose to 16 mg/kg/day. […] The single-drug administration group was administered 0.5% HPMC or a physiological saline as a vehicle instead of Compound-I or carboplatin. […] FIG. 5 and Table 12 show the results. […] The effect of the combined administration was also statistically determined in the same manner as in Test Example 1. In the figure and the table, the asterisk represents a result having a statistically significant difference compared with the single-drug administration group.

Assay [3] relates to Human stomach cancer cell line (NCI-N87). As to the kind of experiment: Potentiation of antitumor effect of paclitaxel, NCI-N87 subcutaneous implant in nude mice (Test Example 2). The assay is classed as in vivo, BALB/cA Jcl-nu/nu mice. The method, then:
In the figure, the asterisk represents a result having a statistically significant difference compared with the single-drug administration group. FIG. 1 and Table 10 show the results. […] Ltd.) was prepared to enable administration at a paclitaxel dose of 60 mg/kg/day. Further, test liquids for the groups receiving only Compound-I were prepared to enable administration at Compound-I doses of 8 mg/kg/day, 16 mg/kg/day, and 24 mg/kg/day. […] In the groups receiving the two drugs, Compound-I was administered at doses of 8 mg/kg/day, 16 mg/kg/day, and 24 mg/kg/day, and paclitaxel was administered at a dose of 60 mg/kg/day. The evaluation was performed in the same manner as in Test Example 1. The effect of the combined administration was also statistically determined in the same manner as in Test Example 1. In the figure and the table, the asterisk represents a result having a statistically significant difference compared with the single-drug administration group. FIG. 3 and Table 11 show the results.

Assay [4] shares this test system. As to the kind of experiment: Potentiation of antitumor effect of lapatinib, NCI-N87 subcutaneous implant in nude mice (Test Example 4). Format: in vivo, BALB/cA Jcl-nu/nu mice. Conditions: compound-I 16 mg/kg/day p.o. day 1-14 (q.d.). As for the experimental part: In the figure, the asterisk represents a result having a statistically significant difference compared with the single-drug administration group. FIG. 1 and Table 10 show the results. […] Lapatinib was prepared by adjusting its dose to 100 mg/kg/day. Further, the test liquid of Compound-I was prepared by adjusting its dose to 16 mg/kg/day. […] The effect of the combined administration was also statistically determined in the same manner as in Test Example 1. In the figure and the table, the asterisk represents a result having a statistically significant difference compared with the single-drug administration group. FIG. 7 and Table 13 show the results.

[5] abbreviates: compound-I 8 mg/kg/day p.o. day 1-14.
Setting [6] is: compound-I 16 mg/kg/day p.o. day 1-14.
Setting [7] is: compound-I 24 mg/kg/day p.o. day 1-14.

Consider `CC1(O)CC(N)(c2ccc(-c3nc4n(c3-c3ccccc3)COc3ccncc3-4)cc2)C1` (stereo not drawn) [compound-I, trans-3-amino-1-methyl-3-(4-(3-phenyl-5H-imidazo[1,2-c]pyrido[3,4-e][1,3]oxazin-2-yl)phenyl)cyclobutanol], for which the “RTV^b) (mean ± SD)” value was 3.01 ± 0.51 in assay [1] (compound-I 16 mg/kg/day) and 2.74 ± 0.29 in assay [1] (compound-I 24 mg/kg/day). Also, the “TGI^c) (%)” value is 57.5% in assay [1] (compound-I 16 mg/kg/day) and 61.4% in assay [1] (compound-I 24 mg/kg/day). Further, the “RTV day 15 Mean ± SD” value was found to be 20.86 ± 4.84 in assay [2]; 2.02 ± 0.41 in assay [3] (setting [5]); 1.32 ± 0.38 in assay [3] (setting [6]); 0.98 ± 0.28 in assay [3] (setting [7]); 1.14 ± 0.11 in assay [4]. Moreover, the “T/C (%)” value in assay [2] is listed as 81%; in assay [3] (setting [5]) it was 59%; in assay [3] (setting [6]), 39%; in assay [3] (setting [7]) it was 29%; in assay [4], 42%.
